Test results published in patent US6632921B1, “Seryl-lysyl-based peptide and peptidomimetic inhibitors of N-myristoyl transferase as anti-infective agents” (G. D Searle & Co, priority 1995, dated 2003).
Like-named read-outs stand apart in the source and are kept apart here.

Columns and labels:
[1] = test system: Candida albicans, strain B311; assay: Antifungal susceptibility testing, microdilution broth, pH 5.4/30° C./YNB; assay type: cell-based; settings: B311, 24 h
Description: Antifungal Screens were set up initially against Candida albicans, strain B311, and Cryotococcus neoformans, strain L210425. Both pathogens, (originally from the stock culture collection, Medical mycology research center, Washington university-Barnes hospital), were obtained from Dr.Kobayashi, Prof.of infectious diseases, Washington University, St.Louis, Mo.
All cultures are maintained at 30° C. on Sabouraud's dextrose agar slants and subcultured at monthly intervals to fresh medium. All inocula for susceptibility testing are prepared in yeast nitogen base(YNB, Difco) broth.
A loopful of growth from Sabouraud dextrose agar slant is inoculated into 4 ml of YNB broth media and incubated at 30° C. overnight (18-24 hrs) with constant agitation (Gyratory Shaker, New Brunswick Scientific). Prior to setting up susceptibility testing, the organisms are counted in a hemocytometer, and diluted as needed into assay media.
1) (Assay at DH 5.4/30° C. Incubation/YNB Media).
Antifungal assays were carried out initially by a modification of the method published by Jones, et. al; (1), and communicated to Searle by Dr. Kobayashi, Washington University. [R. N. Jones et al, Manual of Clinical Microbiology, 4th ed., (1985)]
The antifungal susceptibility testing consists of a microdilution broth procedure performed in 96 well microtiter plates (Costar, cat#3799). Briefly, test compounds from a 20 mM stock solution in DMSO are diluted into sterile, deionized water (final DMSO concentration not exceeding 1%), to yield 2× the desired concentration (100 uM, 10 uM and 1 uM for an initial screen, or a selected concentration range in serial 2 fold dilutions for EC50 determination). One hundred microliters (100 ul) of each concentration is dispensed into triplicate wells of a 96 well microtiter plate. Appropriate dilutions of a suspension of C.albicans (1×10^6 cells/ml) in 2× YNB is distributed into each of the wells, including growth control wells containing no test compound as well as control wells with 0.5% DMSO. Amphotericin B at 0.05, 1 and 5 ug/ml is included in each assay plate as a positive control. The plates are incubated at 30° C. and cell growth is scored by reading the absorbance at 590 nm on an Elisa plate reader(Dynatech, MR.5000).

C.glab. = assay: Antifungal susceptibility testing, pH 5.4 assay, different strains of Candida; assay type: cell-based, C.glabrata; settings: Nakaseomyces glabratus, 24 hr
C.lusi. = assay: as above; assay type: cell-based, C.lusitaniae; settings: Clavispora lusitaniae, 24 hr
C.trop. = assay: as above; assay type: cell-based, C.tropicalis; settings: Candida tropicalis, 24 hr
human NMT = biological target: T1, human NMT (Homo sapiens, UniProt P30419); assay: NMT enzyme inhibition assay (radiochemical HPLC end-point), human NMT; assay type: biochemical
T1 construct: made in house; host or cells: E. coli
T1 sequence (P30419 1-416 isoform P30419-2): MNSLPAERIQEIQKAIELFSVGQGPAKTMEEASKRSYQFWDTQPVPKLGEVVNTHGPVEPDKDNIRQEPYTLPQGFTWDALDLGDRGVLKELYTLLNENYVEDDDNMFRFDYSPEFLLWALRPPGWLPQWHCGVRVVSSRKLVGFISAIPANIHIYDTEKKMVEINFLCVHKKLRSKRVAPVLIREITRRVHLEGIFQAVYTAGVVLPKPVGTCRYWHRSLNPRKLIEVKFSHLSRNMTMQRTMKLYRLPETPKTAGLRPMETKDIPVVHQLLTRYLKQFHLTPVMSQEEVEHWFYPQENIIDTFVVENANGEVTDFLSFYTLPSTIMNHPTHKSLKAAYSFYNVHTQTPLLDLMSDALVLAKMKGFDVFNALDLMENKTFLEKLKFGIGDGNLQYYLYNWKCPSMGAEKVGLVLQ
Description: Recombinant Candida albicans and human NMTs were expressed and purified from E. coli using previously described protocols. [D. A. Towler et al, Proc. Natl. Acad. Sci. USA, 84, 2707-2712 (1987); R. C. Weigand et al, J. Biol. Chem., 267, 8591-8598 (1992); R. J. Duronio et al, Proc. Natl. Acad. Sci. USA, 89, 4129-4133 (1992)] The ability of compounds to inhibit Candida NMT enzymatic activity was assessed using a radiochemical HPLC end-point assay as described previously for Saccharomyces cerevisiae and human NMTs. [D. Towler et al, Proc. Natl. Acad. Sci. USA, 83, 2812-2816 (1986); W. J. Rocque et al, J. Biol. Chem., 268, 9964-9971 (1991)] The donor substrate [^3H]myristoyl-coenzyme A was enzymatically synthesized from [^3H]myristic acid (50 Ci/mmol, Amersham, Arlington Heights, Ill.) and coenzyme A (Fluka Chemical Corp., Ronkonkoma, N.Y.), and purified as described previously. [W. J. Rocque et al, J. Biol. Chem., 268, 9964-9971 (1991)] The peptide acceptor substrate GNAASARR-NH2 was prepared by solid-phase peptide synthesis using the t-Boc amino acid methodology, followed by HF treatment and reverse-phase HPLC purification. Inhibitor stock solutions were prepared at 22 mM in DMSO; the final concentration of DMSO in each assay was 0.5% (v/v). […] The reaction was quenched after 10 minutes at 24° C. by the addition of ice-cold MeOH, and the reaction products were separated and measured using C4 reverse-phase HPLC (Vydac 214TP10415; Separations Group, Hesperia, Calif.) and in-line scintillation counting using a Radiomatic A250 (Packard Instruments, Downers Grove, Ill.) and Ecolite(+) (ICN Biomedical, Costa Mesa, Calif.) as the scintillant. Selectivity was determined by calculating the ratio of the IC50 against human NMT to the IC50 against C. albicans NMT.

[2] = pH 5.4, read-out: ACTIVITY (EC50) C.alb (B311)

Compound	EC50 [1, 2] [µM]	EC50 ([1]; pH 5.4, read-out: caEC50 24 hours) [µM]	EC50 (C.glab.) [µM]	EC50 (C.lusi.) [µM]	EC50 (C.trop.) [µM]	IC50 (human NMT; Table V) [µM]	EC50 ([1]; read-out: caEC50 24 hours) [µM]	IC50 (human NMT; Comparator Compound A table) [µM]
Cc1nccn1CCCCc1ccc(CC(=O)N[C@@H](CO)C(=O)N[C@@H](CCCCN)C(=O)N[C@@H](CC2CCCCC2)C(=O)O)cc1 [Example 2, L-Alanine, 3-cyclohexyl-N-[N^2-[N-[[4-[4-(2-Methyl-1H-imidazol-1-yl)butyl]phenyl]acetyl]-L-seryl]-L-lysyl]-, bis-trifluoroacetate]	35	35	> 250	> 250	> 250	810		
Cc1nccn1CCCCc1ccc(CC(=O)N[C@H](CO)C(=O)N[C@H](CCCCN)C(=O)N[C@H](CC2CCCCC2)C(=O)O)cc1 [Comparator Compound A, D-Alanine, 3-cyclohexyl-N-[N^2-[N-[[4-[4-(2-methyl-1H-imidazol-1-yl)butyl]phenyl]acetyl]-D-seryl]-D-lysyl]-, bis-trifluoroacetate]	> 400		> 250	> 250	> 250		> 400	> 1000
